Results published in the RepoRT retention time repository.

Assay: HILIC, Waters ACQUITY UPLC BEH Amide, 100 × 2.1 mm, 1.7 µm; A: water + 0.125% formic acid + 10 mM ammonium formate; B: 5% water + 95% acetonitrile + 0.125% formic acid + 10 mM ammonium formate; gradient (min/%B) 0/100 2/100 7.7/70 9.5/40 10.25/30 12.75/100 17/100
Settings: stereoisomer not certain

LC retention time | Compound
1.36 min | O=C(O)CC(O)CC(O)C=Cc1c(C2CC2)nc2ccccc2c1-c1ccc(F)cc1 (stereo unspecified) [Pitavastatin]
2.33 min | CN1CCC(=C2c3ccccc3CCc3sccc32)CC1 [Pizotifen]
7.4 min | NCc1[nH]cc(CCC(=O)O)c1CC(=O)O [Porphobilinogen]
5.7 min | CCCNC1CCc2nc(N)sc2C1 (stereo unspecified) [Pramipexole]
1.8 min | CCC(C)C(=O)OC1CC(O)C=C2C=CC(C)C(CCC(O)CC(O)CC(=O)O)C21 (stereo unspecified) [Pravastatin]
3.75 min | COc1cc2nc(N3CCN(C(=O)c4ccco4)CC3)nc(N)c2cc1OC [Prazosin]
8.75 min | NC(=O)CCC(NC(=O)C1CCCN1)C(=O)O (stereo unspecified) [Pro-Gln]
4.61 min | CNNCc1ccc(C(=O)NC(C)C)cc1 [Procarbazine]
2.56 min | CN1CCN(CCCN2c3ccccc3Sc3ccc(Cl)cc32)CC1 [Prochlorperazine]
0.97 min | CC(=O)C1CCC2C3CCC4=CC(=O)CCC4(C)C3CCC12C (stereo unspecified) [Progesterone]
8.6 min | O=C(O)C1CC(O)CN1C(=O)C1CCCN1 (stereo unspecified) [Proline-hydroxyproline]
7.83 min | O=C(O)C1CCCN1 (stereo unspecified) [Proline]
6.41 min | CCC(=O)OC(CC(=O)[O-])C[N+](C)(C)C (stereo unspecified) [Propionylcarnitine]
0.98 min | COc1cc(C=Cc2ccc(O)cc2)cc(OC)c1 [Pterostilbene]
2.44 min | c1ncc2[nH]cnc2n1 [Purine]
9.3 min | NCCCCN [Putrescine]
7.7 min | Cc1ncc(COP(=O)(O)O)c(C=O)c1O [Pyridoxal-5-phosphate]
2.18 min | Cc1ncc(CO)c(C=O)c1O [Pyridoxal]
8.1 min | Cc1ncc(CO)c(CN)c1O [Pyridoxamine]
3.78 min | Cc1ncc(CO)c(CO)c1O [Pyridoxine]
8.71 min | O=C1CCC(C(=O)O)N1 (stereo unspecified) [Pyroglutamic acid]
5.66 min | O=C(O)c1ccc[nH]1 [Pyrrole-2-carboxylic acid]
4.61 min | CC(=O)OCC1OC(Oc2c(-c3ccc(O)c(O)c3)oc3cc(O)cc(O)c3c2=O)C(O)C(O)C1O (stereo not drawn) [Quercetin-3-O-beta-glucopyranosyl-6'-acetate]

Second part, the compound before the results:

Compound | LC retention time
CCOP(=O)(OCC)Oc1ccc([N+](=O)[O-])cc1 [Paraoxon] | 1.02 min
CCC(=O)NS(=O)(=O)c1ccc(-c2c(-c3ccccc3)noc2C)cc1 [Parecoxib] | 0.98 min
Fc1ccc(C2CCNCC2COc2ccc3c(c2)OCO3)cc1 (stereo unspecified) [Paroxetine] | 3.08 min
CC1COc2c(C3(N)CC3)c(F)cc3c(=O)c(C(=O)O)cn1c23 (stereo unspecified) [Pazufloxacin] | 2.49 min
CCn1cc(C(=O)O)c(=O)c2cc(F)c(N3CCN(C)CC3)cc21 [Pefloxacin] | 3.65 min
N=C1NC(=O)C(c2ccccc2)O1 (stereo unspecified) [Pemoline] | 1.39 min
Nc1nc2c(ncn2CCC(CO)CO)c(=O)[nH]1 [Penciclovir] | 6.71 min
CC(C)=CCN1CCC2(C)c3cc(O)ccc3CC1C2C (stereo unspecified) [Pentazocine] | 2.65 min
CC(=O)CCCCn1c(=O)c2c(ncn2C)n(C)c1=O [Pentoxifylline] | 1.09 min
CCCN1CC(CSC)CC2c3cccc4[nH]cc(c34)CC21 (stereo unspecified) [Pergolide] | 2.41 min
O=C1C2CCCCC2C(=O)N1CCCCN1CCN(c2nsc3ccccc23)CC1 (stereo unspecified) [Perospirone] | 2.14 min
COc1cc(-c2[o+]c3cc(O)cc(O)c3cc2OC2OC(CO)C(O)C(O)C2O)cc(O)c1O (stereo unspecified) [Petunidin-3-glucoside] | 4.47 min
CC1C(c2ccccc2)OCCN1C (stereo unspecified) [Phendimetrazine] | 2.52 min
NNCCc1ccccc1 [Phenelzine] | 4.45 min
CC(=O)OCCc1ccccc1 [Phenethylacetate] | 1.02 min
NCCc1ccccc1 [Phenethylamine] | 4.87 min
CC1NCCOC1c1ccccc1 (stereo unspecified) [Phenmetrazine] | 4.04 min
NC(=O)OCCCc1ccccc1 [Phenprobamate] | 1.01 min
CC(C)(N)Cc1ccccc1 [Phentermine] | 6.23 min
O=CCc1ccccc1 [Phenylacetaldehyde] | 5.4 min
NC(=O)CCC(NC(=O)Cc1ccccc1)C(=O)O (stereo unspecified) [Phenylacetylglutamine] | 6.03 min
O=C(O)CNC(=O)Cc1ccccc1 [Phenylacetylglycine] | 2.88 min
NCC(O)c1ccccc1 (stereo unspecified) [Phenylethanolamine] | 5.51 min
O=P(O)(O)Oc1ccccc1 [Phenylphosphoric acid] | 7.05 min

Compound | LC retention time
CC(N)C(O)c1ccccc1 (stereo unspecified) [Phenylpropanolamine] | 5.29 min
O=C(CCc1ccc(O)cc1)c1c(O)cc(O)cc1O [Phloretin] | 1.5 min
O=C(c1ccccc1)c1c(O)cc(O)cc1O [Phlorobenzophenone] | 1.34 min
Oc1cc(O)cc(O)c1 [Phloroglucinol] | 1.15 min
C=C(OP(=O)(O)O)C(=O)O [Phosphoenolpyruvic acid] | 9.05 min
O=C(O)CP(=O)(O)O [Phosphonoacetic acid] | 9.73 min
NC(Cc1ccc(OP(=O)(O)O)cc1)C(=O)O (stereo unspecified) [Phosphotyrosine] | 9.72 min
O=C(O)c1ccccc1C(=O)O [Phthalic acid] | 1.15 min
CNC(=O)Oc1ccc2c(c1)C1(C)CCN(C)C1N2C (stereo unspecified) [Physostigmine] | 3.17 min
CCCCCCCCCCCCCCC(O)C(O)C(N)CO (stereo unspecified) [Phytosphingosine] | 5.18 min
CC(C)(O)C1C2OC(=O)C1C1(O)CC3OC34C(=O)OC2C14C (stereo unspecified) [Picrotin] | 1.21 min
O=C1CCC(C(=O)N2CSCC2C(=O)O)N1 (stereo unspecified) [Pidotimod] | 7.3 min
CCC1C(=O)OCC1Cc1cncn1C (stereo unspecified) [Pilocarpine] | 2.23 min
CC(N=C(NC#N)Nc1ccncc1)C(C)(C)C (stereo unspecified) [Pinacidil] | 1.49 min
CCc1ccc(CCOc2ccc(CC3SC(=O)NC3=O)cc2)nc1 (stereo unspecified) [Pioglitazone] | 1.11 min
O=C(O)C1CCCCN1 (stereo unspecified) [Pipecolic acid] | 7.83 min
O=C(C=CC=Cc1ccc2c(c1)OCO2)N1CCCCC1 [Piperine] | 1.1 min
Cc1nc2ccccn2c(=O)c1CCN1CCC(C(=O)c2ccc(F)cc2)CC1 [Pirenperone] | 3.5 min
CN1C(C(=O)Nc2ccccn2)=C(O)c2ccccc2S1(=O)=O [Piroxicam] | 1.02 min
O=C1CN=C(c2ccccc2)c2cc(Cl)ccc2N1CC1CC1 [Prazepam] | 1.07 min
CCC(=O)Nc1ccc(Cl)c(Cl)c1 [Propanil] | 1.08 min
CCC(=O)OC(Cc1ccccc1)(c1ccccc1)C(C)CN(C)C (stereo unspecified) [Propoxyphene] | 2.01 min
CCOC(=O)COc1cc(-c2nn(C)c(OC(F)F)c2Cl)c(F)cc1Cl [Pyrafluefen-ethyl] | 1.02 min
c1ccncc1 [Pyridine] | 6.63 min
